Laboratory results taken from patent US20230382916A1, “HETEROARYL HETEROCYCLIC COMPOUNDS AND USES THEREOF” (HUTCHISON MEDIPHARMA LIMITED, priority 2020, published 2023).

Experiments:
[1] = system: anti-IgD antibody-induced B cell activation in mice whole blood; experiment: In vivo efficacy of the inhibitory effect on BTK target: anti-IgD antibody-induced B cell activation in mice whole blood after oral dosing; design: species or system mouse; conditions: 5 mg/kg oral single dose, 16 h
Procedure: Objects: B cells in mice whole blood were induced and activated by the anti-IgD antibody, and the inhibitory effect of the compound of the present invention on B cell activation in vivo was studied, so as to determine the inhibitory effect of the compound of the present invention on the BTK target in vivo.
Methods: C57BL/6 mice (female, 18-20 g, purchased from Shanghai Lingchang Biotechnology Co., Ltd.) were grouped according to Table 1.
The animals of each group were administered, then were placed in CO2 for anesthesia at designated time points, blood samples were taken from […] via retro-orbital bleeding, and heparin was used for anticoagulation; 90 μL of whole blood was taken from mice of each group, and added to a 96 well culture plate, and anti-mouse IgD antibody (BIO-RAD, Cat #MCA4693) was added to each well to a final concentration of […] (respectively for each drug-treated group and anti-IgD antibody-inducted vehicle group); in addition, 90 μL of whole blood of mice in the vehicle group was taken and added to the 96-well culture plate, and PBS (phosphate buffer, GIBCO, Cat #C20012500BT) was added to each well to a final concentration of 0.01 μg/L (namely, the vehicle control group); Each group was mixed well and incubated in a 37° C./5% CO2 incubator for 4 hours. In addition, the blood of mice in the drug-treated group was centrifuged to separate plasma for blood concentration analysis.
B cell activation ratio=percentage of CD69^+CD19^+ double positive B cells/percentage of CD19^+ single positive B cells
Inhibition ratio=(percentage of B cell activation ratio in anti-IgD antibody-induced vehicle group−percentage of B cell activation ratio in drug-treated group)/(percentage of B cell activation ratio in anti-IgD antibody−induced vehicle group-percentage of B cell activation ratio in vehicle control group)×100%
All data are represented by mean±standard error. For the comparison between each drug-treated group and the anti-IgD antibody-induced vehicle group, p value was calculated by Graphpad Prism using one-way ANOVA analysis of variance and Dunnett's test, and for the comparison between each drug-treated group, p value was calculated by using unpaired t test.

[2] = system: rat arthritis model induced by type II collagen; experiment: Rat arthritis model induced by type II collagen (CIA), paw volume; assay type: in vivo; conditions: for inhibition ratio of area under the curve (IRAUC) of paw swelling: Day 13 to Day 19
Procedure: An appropriate amount of bovine type II collagen (CII, Chondrex (Redmond, WA, USA), Cat #20021) was weighed and dissolved in 0.1 mole of acetic acid (SPGC Sinopharm Chemical Reagent Co., Ltd (Shanghai, P.R. China), Cat #: 10000218.), which was formulated into a solution with a concentration of 6 mg/mL, stirred at 4° C. overnight, and added with an equal volume of Freund's incomplete adjuvant (Sigma-Aldrich. (St. Louis, MO, USA), Cat #: SLBW0366.), fully emulsified to prepare an emulsion with a CII concentration of 3 mg/mL.
Female Lewis rats were purchased from Beijing Vital River Laboratory Animal Technology Co., Ltd. (certificate number 20200928Aazz0619000579, initial body weight of 110-130 grams), and 6 rats were randomly selected as a normal group; and all of the remaining rats were immunized. In the first immunization on day 0, the rats except those in the normal group were anesthetized with isoflurane (Hebei Yipin Pharmaceutical Co., Ltd., Lot: C002170601.), and then disinfected with 75% alcohol, and 0.2 mL of emulsion was injected intradermally at the base of the tail thereof. A second challenge was carried out on day 7, and 0.2 mL of emulsion was intradermally injected using the same method. Once the animals developed symptoms on day 10, the incidence conditions thereof were closely monitored.
After grouping, the normal group was not administered, and the rats in the other groups were administered with the control vehicle, 0.25 mg/kg and 4 mg/kg of the reference GDC-0853, and each dose of compound 1 orally once a day until the end of the experiment.
The paw volume was measured on day 10 after immunization, and the left and right hind paw volumes (V) were measured every day after the paw volume increase was detected.
The arthrosis paw volumes of the left and right hind limbs of each animal were measured, and the average paw volume (APV) was calculated according to the following formula:
Average paw volume APV=(Vleft+Vright)/2
The average arthrosis paw volume of each animal before administration was used as the baseline (or considered […] of inflammation). The averaged paw swelling (APS) of each animal is calculated according to the following formula, wherein, APVd1 is the average paw volume of the animal administered on day 1, and APVdt is the average paw volume of the animal administered on day t:
The averaged paw swelling APSdt=(APVdt−APVd1)
The area under the curve (AUC) of the average paw volume swelling is the area under the curve of the arthrosis score swelling calculated by the trapezoid method, and the calculation formula is:
AUCAPS=½×(APSd1+APSd2)×(d2−d1)+½×(APSd2+APSd3)×(d3−d2)+ . . . +½×(APSdn+APSd(n-1))×(dn−dn-1).
Inhibition ratio IRAUC%=(Mean AUCAPS in the model group−AUCAPS in the drug-treated group)/(Mean AUCAPS in the model group−Mean AUCAPS in the normal group)×100%.

**Q.** What does the source list for `C[C@H]1CN(C2COC2)C[C@H](C)N1c1ccc(Nc2cc(-c3ccnc(-n4ccn5c6c(cc5c4=O)CC(C)(C)C6)c3CO)cn(C)c2=O)nc1` [Compound 1, 2-(5-((5-((2S,6S)-2,6-dimethyl-4-(oxetan-3-yl)piperazin-1-yl)pyridin-2-yl)amino)-3′-(hydroxymethyl)-1-methyl-6-oxo-1,6-dihydro-[3,4′-bipyridin]-2′-yl)-7,7-dimethyl-7,8-dihydro-2H-cyclopenta[4,5]pyrrolo[1,2-a]pyrazin-1(6H)-one]?
**A.** Inhibition ratio (%) on B cell activation [1]: 60%; B cell activation ratio (the population of activated B cells in total B cells) ([1]; mean ± standard error): 16.0 ± 3.9; Inhibition ratio (%) on B cell activation ([1]; listed as compound 1): 60%; inhibition ratio of area under the curve (IRAUC) of paw swelling ([2]; 0.06 mg/kg oral QD): 76.2%; effect on paw volume compared with vehicle control group ([2]; 0.25 mg/kg oral QD): significantly increase the continuous improvement of paw volume swelling; inhibition ratio of area under the curve (IRAUC) of paw swelling ([2]; 0.25 mg/kg oral QD): 83.1%; effect on paw volume compared with vehicle control group ([2]; 4 mg/kg oral QD): significantly increase the continuous improvement of paw volume swelling; inhibition ratio of area under the curve (IRAUC) of paw swelling ([2]; 4 mg/kg oral QD): 200.2%; minimum effective dose ([2]; oral QD, paw swelling): 0.06 mg/kg/day
